Values quoted from earlier work in patent US20190110514A1, “KITS COMPRISING SATIETY-INDUCING FORMULATIONS” (PERORA GMBH, priority 2016, published 2019).

What was measured:
satiety signalling = settings: infusion into the duodenum by feeding tube
[1] = rat feeding study; independent from intake

## CCCCCCCCCCCC(=O)O [lauric acid]
Satiety signalling
  satiety signalling: strong satiety signalling

## CCCCCCCC/C=C\CCCCCCCC(=O)O [oleic acid]
Satiety signalling
  satiety signalling: strong satiety signalling

## CCCCCCCCCCCCCCCCCC(=O)OCC(COC(=O)CCCCCCCCCCCCCCCCC)OC(=O)CCCCCCCCCCCCCCCCC [tristearin]
[1]
  true digestibility of stearic acid from tristearin: 0.15 g/g
